According to patent US20130338032A1, “ASSAY FOR DETERMINING EPIGENETIC PROFILES OF MARKERS OF FRAGILE X ALLELES” (Murdoch Childrens Research Institute, priority 2009, published 2013):

Experiments:
Assay type in all cases: cell-based, human
[1] = system: FREE1; assay: FREE1 methylation (MALDI-TOF MS) in lymphoblast cell lines treated with 5-aza
Method: (§1) FIG. 1B through J is a graphical representation of the expression of the FMR1 and FRR4 mRNA and FREE1 methylation in lymphoblast cultures with selectively depleted DNMTI. Cell lines from (B, C, D) a HC cell line (30 CGGs), (E, F, G) a PM cell line (103 CGGs) and (H, I, J) a FM cell line from an FXS individual (490 CGGs) were cultured for 3 days in standard RPMI medium/10% v/v fetal bovine serum treated with different doses of 5-aza-deoxycytidine, in triplicate wells, with half of the cells from each well taken for DNA methylation analysis, and the other half for mRNA analyses. FREE1 methylation for each sample was examined from duplicate bisulfite reactions, with single PCR products made from each conversion. The 0.1 methylation output ratio cutoff was not used for this experiment due to an increased number of technical replicates, with values expressed as means of six technical replicates per condition. Methylation and mRNA levels were assessed in the same wells using MALDI-TOF MS and real-time PCR, respectively. The error bars represent standard error (n=3 to 6). All conditions were compared to 0 μM 5-aza control: ***-p<0.001; **-p<0.05.
Lymphoblast cell lines were established by Epstein-Barr virus (EBV) transformation from peripheral blood of individuals with: 30, 170 and 490 repeats. The cell lines were treated with 5 aza based on a previously described protocol (Pietrobono et al, 2002, supra). Briefly, A 10 mM stock solution of 5-aza (Sigma-Aldrich) was initially prepared in sterile water. The cell-viability counts and cell composition were determined by trypan blue exclusion, using a hemocytometer. Cells were then resuspended at a density of […] in RPMI medium (Sigma St Luis, Mo., USA)/10% v/v Fetal bovine serum (CSL) at 37° C., 5% v/v CO2, supplemented with of 5-aza stock and thoroughly resuspended. The cells were cultured in triplicate wells for each of the four final 5-Aza concentrations of: 0, 1, 10 and 100 μM. […]

[2] = system: FMR4/ASFMR1 mRNA; assay: FMR4/ASFMR1 mRNA (real-time PCR) in lymphoblast cell lines treated with 5-aza
Method: as §1
(§2) Lymphoblast cell lines were established by Epstein-Barr virus (EBV) transformation from peripheral blood of individuals with: 30, 170 and 490 repeats. […] The cell-viability counts and cell composition were determined by trypan blue exclusion, using a hemocytometer. […]
Total RNA was extracted and purified using the Rneasy extraction kit, as per manufacturer's instructions (Qiagen Inc., Hilden, Germany). RNA concentrations were measured in triplicate using a NanoDrop ND-1000 Spectrophotometer, with purity being determined by the A260/A280 ratio using the expected values between 1.8 and 2. Total RNA quality and the degree of DNA contamination was also assessed using capillary electrophoresis Standard Sens Kit (Bio-rad), which involved descriptive comparison of chromatographic features based on previous publications using this system (Fleige and Pfaffl, Mol Aspects Med 27(2-3):126-139, 2006). […]

[3] = system: FMR1 mRNA; assay: FMR1 mRNA (real-time PCR) in lymphoblast cell lines treated with 5-aza; conditions: 5-aza 0, 1, 10, 100 μM, 3 days
Method: as §1, with “All conditions were compared to 0 μM 5-aza control: ***-p<0.001; **-p<0.05.” left out
as §2

[4] = GZ and PM cell lines, 5-aza 0, 1, 10, 100 μM, 3 days
[5] = cell lines for FM carriers affected with FXS, 5-aza 0, 1, 10, 100 μM, 3 days
[6] = cell lines from carriers of CGG alleles ranging from normal size to FM, 5-Aza treatment

Question: Which results are given for `Nc1ncn([C@H]2C[C@H](O)[C@@H](CO)O2)c(=O)n1` [5-aza, 5-aza-2′-deoxycytidine]?
Answer: FREE1 methylation [1, 4]: further demethylation of FREE1; FREE1 methylation [1, 5]: demethylation of FREE1; FREE1 methylation [1, 6]: de-methylation of the FREE1; ASFMR1/FMR4 mRNA levels [2, 4]: increase; mRNA levels of ASFMR1/FMR4 [2, 5]: increase in mRNA levels; FMR4/ASFMR1 transcription within the FREE1 [2, 6]: increase FMR4/ASFMR1 transcription; FMR1 mRNA levels ([3]; GZ and PM cell lines): increase; mRNA levels of FMR1 ([3]; cell lines for FM carriers affected with FXS): increase in mRNA levels
